One substance from US20220054478A1, “MINIMIZATION OF SYSTEMIC INFLAMMATION” (Ascendis Pharma Oncology Division A/S, priority 2019, published 2022) can be followed below.

Details of the series: species or system WISTAR rats. The following applies: rat, in vivo, sc, 25 ug. The source says: Hydrogels were suspended (ca. 6% wt/v) PBST buffer at pH 7.4. […] Blood samples were withdrawn and used for plasma generation over the course of 28 d. […] Plasma concentration profiles were generated and analyzed with Phoenix WinNonlin software (Certara, Princeton, N.J., USA).

For the substance Resiquimod [Compound 4], the “t1/2 (biphasic), first phase” value is 1.5 h and the “t1/2 (biphasic), second phase” value worked out at 10 h.
